Numbers after ± are expanded uncertainties. One block for each molecule: values may come before it.
Details: Liquid, Ebulliometric method (Recirculating still)

SMILES: CCNCC [diethylamine]
vapor or sublimation pressure (313.64 K): 60 ± 1 kPa
vapor or sublimation pressure (328.67 K): 101.3 ± 1.8 kPa

vapor or sublimation pressure (324.92 K): 60 ± 0.87 kPa
vapor or sublimation pressure (337.82 K): 101.3 ± 1.6 kPa
SMILES: CO [methanol]

SMILES: CCN(CC)CCO [(diethylamino)ethanol]
vapor or sublimation pressure (418.34 K): 60 ± 1.2 kPa
vapor or sublimation pressure (435.94 K): 101.3 ± 2.1 kPa

Source: the NIST ThermoML archive (doi:10.1021/je301219c)
